# Where a name gives a salt, the structure may show the parent alone.
# Tests used:
# [1] = test system: L. Casei; assay: Bacterial killing assay (PDT, Example 5); type: cell-based; conditions: 22 μM erythrosine in BHI broth
# Description: L. Casei is a known constituent of gut microflora. A growth curve for L. Casei both in the presence and without erythrosine was prepared using broth turbidity measured by spectrophotometry using a Shimadzu UV-1601 UV-Visible spectrophotometer. L. Casei were grown in Brain Heart Infusion (BHI) liquid broth at 37° C. to stationary phase overnight. A fresh volume of BHI broth containing erythrosine released from the scaffold at a concentration known to be effective for PDT was inoculated using the stationary phase culture and incubated at 37° C. in a shaking incubator. Bacteria were also incubated in BHI with non scaffold derived erythrosine, BHI containing an equal concentration of scaffold breakdown products from a non erythrosine containing scaffold or blank scaffold and BHI alone with no additives. Since bacteria are most sensitive to PDT during log phase this was chosen as the time most appropriate for irradiation therefore irradiation took place 2 hours 30 minutes after inoculation. […] Following irradiation bacterial viability was assessed by spreading broth samples on Columbia blood agar plates and following 48 hour incubation counting the number of visible colonies. The number of colony forming units (cfu)/ml of broth were then calculated. […]
# [2] = test system: L casei; assay: L casei cultures in BHI with additives, foil-wrapped or exposed to light (Example 16); type: cell-based
# Description: Pieces of blank PGA scaffold and PGA scaffold containing 5 w/w % erythrosine B were incubated overnight in BHI and the scaffold was removed before adding L Casei culture, the erythrosine B concentration was measured and adjusted to 22 μM. For each of the ‘media’ shown in Table 1, two tubes of culture, one tube wrapped in foil, were exposed to light for 30 minutes. After exposure to light, serial dilutions were made of the cultures in BHI which were then grown on Columbian blood agar plates for 48 hours. The number of colonies on the plates was then counted and those having between 30 and 300 colonies were used to calculate the cfu/ml for the cultures. […] PDT (erythrosine plus light) causes 6 logs of cell kill, whereas in the presence of glycolic acid released from the scaffold (or added to a similar concentration out of a bottle), the amount of cell killing doubles or more.
smiles,measurement,setting,value
"O=C1OC2(c3ccccc31)c1cc(I)c(O)c(I)c1Oc1c2cc(I)c(O)c1I [Erythrosin B, disodium salt of 2′,4,′5,′7′-tetraiodofluorescein]",log10 kill,[1]; 10 minutes irradiation,6.1 log10
same,log10 kill,[1]; 30 minute irradiation,6.4 log10
same,cell kill by PDT (erythrosine plus light),"[2]; 22 μM, light for 30 minutes",6 logs
same,"colony forming units, culture tubes wrapped in foil and exposed to light (F)","[2]; BHI, 30 minutes, foil-wrapped, erythrosin 22 μM where present",2.75 × 10^8 cfu/ml
same,"colony forming units, culture tubes exposed to light (L)","[2]; BHI, exposed to light for 30 minutes, erythrosin 22 μM where present",2.1 × 10^2 cfu/ml
